Results: patent US20250144067A1, “PERSONALIZED STARVATION THERAPY FOR CANCER” (Faeth Therapeutics, Inc., priority 2021, published 2025)
Counter-ions that a name gives are not always drawn. Like-named read-outs stand apart in the source and are kept apart here.

Legend:
[1] = tested on: NCI-H292 lung cancer cells; test: FDA drug screening, complete media vs cholesterol-free media with simvastatin (TABLE 2); type: cell-based, human
[2] = tested on: NCI-H292 lung cancer cells; test: FDA drug screening, complete media vs cholesterol-free media without statin (TABLE 1); type: cell-based, human
[3] = NCI-H292 cells, drug in cholesterol-free media with simvastatin 0.04 μM
[4] = NCI-H292 cells, drug in complete media
[5] = complete media vs cholesterol-free media + simvastatin (0.04 μM), >0 enhanced anti-cancer activity, about 0 neutral, <0 antagonist
[6] = Complete minus Cholesterol-free, >0 enhanced anti-cancer activity, about 0 neutral, <0 antagonist
[7] = NCI-H292 cells, cholesterol-free media without statin
[8] = NCI-H292 cells, FDA drug library screen, cholesterol-free media with simvastatin 0.04 μM
[9] = NCI-H292 cells, FDA drug library screen, complete media
[10] = complete media minus cholesterol-free media + simvastatin, >0 enhanced anti-cancer activity, about 0 neutral, <0 antagonist
[11] = complete vs cholesterol-free media, greater than 0 enhanced anti-cancer activity, about 0 neutral, below 0 antagonists
[12] = NCI-H292 cells, cholesterol-free media with simvastatin 0.04 μM, cell growth value in FDA drug screen
[13] = NCI-H292 cells, complete media, cell growth value in FDA drug screen
[14] = NCI-H292 cells, cholesterol-free media without statin, FDA drug library screen
[15] = NCI-H292 cells, complete media, FDA drug library screen
[16] = complete media minus cholesterol-free media + simvastatin, […]
[17] = complete vs cholesterol-free media, […]
[18] = Complete minus Cholesterol-free, greater than 0 enhanced anti-cancer activity, about 0 neutral, below 0 antagonist
[19] = NCI-H292 cells, FDA drug library screen, cholesterol-free media without statin
[20] = complete vs cholesterol-free media, >0 enhanced anti-cancer activity, about 0 neutral, <0 antagonist
[21] = NCI-H292 cells, cholesterol-free media with simvastatin 0.04 μM, FDA drug library screen (TABLE 2)
[22] = NCI-H292 cells, complete media, FDA drug library screen (TABLE 2)
[23] = complete media minus cholesterol-free media + simvastatin (0.04 μM), >0 enhanced anti-cancer activity, about 0 neutral, <0 antagonist
[24] = Complete minus Cholesterol-free, greater than 0 enhanced anti-cancer activity, about 0 neutral, below 0 antagonists
[25] = NCI-H292 cells in complete media
[26] = NCI-H292 cells in cholesterol-free media without statin
[27] = NCI-H292 cells, FDA library drug in cholesterol-free media with simvastatin 0.04 μM
[28] = NCI-H292 cells, FDA library drug in complete media
[29] = NCI-H292 cells, cholesterol-free media with simvastatin 0.04 μM, […]
[30] = NCI-H292 cells, complete media, […]
[31] = Complete minus Cholesterol-free, […]

Cc1ccc(C(C)C)cc2c(C)ccc1-2 [Guaiazulene]
Cholesterol-free media + simvastatin (0.04 μM) [1, 3]: 1.916
Complete Media [1, 4]: 1.674
Difference [1, 5]: −0.24
Difference [2, 6]: −0.21
Cholesterol-free [2, 7]: 1.231
Complete ([2]; NCI-H292 cells, complete media): 1.025

O=c1[nH]cnc2c1ncn2[C@H]1CC[C@@H](CO)O1 [Didanosine]
Cholesterol-free media + simvastatin (0.04 μM) [1, 8]: 0.9758
Complete Media [1, 9]: 0.8636
Difference [1, 5]: −0.11
Difference [2, 6]: −0.23
Cholesterol-free [2, 7]: 0.9969
Complete ([2]; NCI-H292 cells, complete media): 0.7675

CCOC(=O)c1c(CSc2ccccc2)n(C)c2cc(Br)c(O)c(CN(C)C)c12 [Umifenovir (hydrochloride)]
Cholesterol-free media + simvastatin (0.04 μM) [1, 8]: 0.9009
Complete Media [1, 9]: 1.225
Difference [1, 10]: 0.32
Cholesterol-free [2, 7]: 1.088
Complete ([2]; NCI-H292 cells, complete media): 0.7625
Difference [2, 11]: −0.33

N[C@@H]1[C@H]2CN(c3nc4c(cc3F)c(=O)c(C(=O)O)cn4-c3ccc(F)cc3F)C[C@@H]12 [Trovafloxacin]
Cholesterol-free media + simvastatin (0.04 μM) [1, 12]: 1.092
Complete Media [1, 13]: 1.114
Difference [1, 10]: 0.02
Cholesterol-free [2, 7]: 1.186
Complete ([2]; NCI-H292 cells, complete media): 0.8678
Difference [2, 11]: −0.32

Cobimetinib (hemifumarate)
Cholesterol-free media + simvastatin (0.04 μM) [1, 3]: 0.5239
Complete Media [1, 4]: 0.3203
Difference [1, 5]: −0.20
Difference [2, 6]: 0.01
Cholesterol-free [2, 14]: 0.2855
Complete [2, 15]: 0.2917

Oxaliplatin
Cholesterol-free media + simvastatin (0.04 μM) [1, 8]: 0.8725
Difference [1, 16]: 0.17
Cholesterol-free [2, 7]: 1.359
Complete ([2]; NCI-H292 cells, complete media): 0.9211
Difference [2, 17]: −0.44

CC(OC(=O)NCC1(CC(=O)O)CCCCC1)OC(=O)C(C)C (stereo not shown) [Gabapentin enacarbil]
Cholesterol-free media + simvastatin (0.04 μM) [1, 8]: 1.032
Complete Media [1, 9]: 0.9332
Difference [1, 5]: −0.10
Difference [2, 18]: −0.14
Cholesterol-free [2, 19]: 1.017
Complete [2, 9]: 0.8727

N=C(N)NC(=O)c1nc(Cl)c(N)nc1N [Amiloride hydrochloride dihydrate]
Cholesterol-free media + simvastatin (0.04 μM) [1, 3]: 1.232
Complete Media [1, 4]: 1.07
Difference [1, 5]: −0.16
Cholesterol-free [2, 14]: 0.9043
Complete [2, 15]: 1.06
Difference [2, 20]: 0.16

CC(CCc1ccccc1)NCC(O)c1ccc(O)c(C(N)=O)c1 (stereo not shown) [Labetalol (hydrochloride)]
Cholesterol-free media + simvastatin (0.04 μM) [1, 21]: 1.147
Complete Media [1, 22]: 1.128
Difference [1, 23]: −0.02
Difference [2, 24]: −0.64
Complete [2, 25]: 0.9816

N[C@@H]1C[C@H]1c1ccccc1.N[C@@H]1C[C@H]1c1ccccc1.O=S(=O)(O)O [Tranylcypromine (hemisulfate)]
Cholesterol-free media + simvastatin (0.04 μM) [1]: 0.8773
Complete Media [1]: 0.7026
Difference [1]: −0.17
Cholesterol-free [2]: 1.175
Complete [2]: 0.8249
Difference [2]: −0.35

COC(=O)[C@H](c1ccccc1Cl)N1CCc2sccc2C1 [Clopidogrel]
Cholesterol-free media + simvastatin (0.04 μM) [1, 21]: 1.038
Complete Media [1, 22]: 0.969
Difference [1, 23]: −0.07
Difference [2, 6]: −0.02
Cholesterol-free [2, 14]: 0.9805
Complete [2, 15]: 0.958

CC(=O)OCC(=O)[C@@]12OC3(CCCC3)O[C@@H]1C[C@H]1[C@@H]3CCC4=CC(=O)C=C[C@]4(C)[C@@]3(F)[C@@H](O)C[C@@]12C [Amcinonide]
Cholesterol-free media + simvastatin (0.04 μM) [1, 8]: 0.5029
Complete Media [1, 9]: 0.766
Difference [1, 10]: 0.26
Difference [2, 18]: −0.16
Cholesterol-free [2, 19]: 1.081
Complete [2, 9]: 0.9188

CC1(C)[C@@H](O[C@H]2O[C@H](C(=O)O)[C@@H](O)[C@H](O)[C@H]2O[C@@H]2O[C@H](C(=O)O)[C@@H](O)[C@H](O)[C@H]2O)CC[C@]2(C)[C@H]3C(=O)C=C4[C@@H]5C[C@@](C)(C(=O)O)CC[C@]5(C)CC[C@@]4(C)[C@]3(C)CC[C@@H]12 [Glycyrrhizic acid]
Cholesterol-free media + simvastatin (0.04 μM) [1, 8]: 1.042
Complete Media [1, 9]: 0.907
Difference [1, 5]: −0.13
Difference [2, 18]: −0.08
Cholesterol-free [2, 19]: 1.146
Complete [2, 9]: 1.061

CCCNC(=O)NS(=O)(=O)c1ccc(Cl)cc1 [Chlorpropamide]
Cholesterol-free media + simvastatin (0.04 μM) [1, 3]: 1.114
Complete Media [1, 4]: 0.9308
Difference [1, 5]: −0.18
Difference [2, 24]: −0.51
Cholesterol-free [2, 26]: 1.49
Complete [2, 25]: 0.9801

C[C@@](Cc1ccc(O)c(O)c1)(NN)C(=O)O [Carbidopa]
Cholesterol-free media + simvastatin (0.04 μM) [1, 27]: 1.956
Complete Media [1, 28]: 1.221
Difference [1, 5]: −0.74
Difference [2, 18]: −0.16
Cholesterol-free [2, 19]: 1.15
Complete [2, 9]: 0.9946

O=C1CCc2ccc(OCCCCN3CCN(c4cccc(Cl)c4Cl)CC3)cc2N1 [Aripiprazole]
Cholesterol-free media + simvastatin (0.04 μM) [1, 3]: 1.264
Complete Media [1, 4]: 1.028
Difference [1, 5]: −0.24
Difference [2, 18]: −0.16
Cholesterol-free [2, 19]: 0.9968
Complete [2, 9]: 0.833

COc1c(C)c2c(c(O)c1C/C=C(\C)CCC(=O)OCCN1CCOCC1)C(=O)OC2 [Mycophenolate Mofetil]
Cholesterol-free media + simvastatin (0.04 μM) [1, 8]: 0.7059
Complete Media [1, 9]: 0.6206
Difference [1, 5]: −0.09
Difference [2, 6]: −0.01
Cholesterol-free [2, 14]: 0.3372
Complete [2, 15]: 0.3232

COC(=O)N[C@H](C(=O)N1CC2(CC2)C[C@H]1c1nc(-c2ccc3c(c2)C(F)(F)c2cc(-c4ccc5[nH]c([C@@H]6[C@H]7CC[C@H](C7)N6C(=O)[C@@H](NC(=O)OC)C(C)C)nc5c4)ccc2-3)c[nH]1)C(C)C [Ledipasvir (acetone)]
Cholesterol-free media + simvastatin (0.04 μM) [1, 27]: 1.383
Complete Media [1, 28]: 0.9707
Difference [1, 5]: −0.41
Difference [2, 18]: −0.13
Cholesterol-free [2, 19]: 0.5672
Complete [2, 9]: 0.4332

C=C1CC[C@@H]2[C@](C)(COC(=O)CCC(=O)O)[C@H](OC(=O)CCC(=O)O)CC[C@@]2(C)[C@@H]1/C=C/C1=CCOC1=O [Dehydroandrographolide succinate]
Cholesterol-free media + simvastatin (0.04 μM) [1, 29]: 0.8998
Complete Media [1, 30]: 1.004
Difference [1, 16]: 0.10
Difference [2, 31]: −1.21
Cholesterol-free [2, 26]: 2.195
Complete [2, 25]: 0.9855

N#Cc1ccnc(N2C(=O)CC[C@H]2C(=O)N(c2cncc(F)c2)[C@H](C(=O)NC2CC(F)(F)C2)c2ccccc2Cl)c1 [Ivosidenib]
Cholesterol-free media + simvastatin (0.04 μM) [1, 12]: 0.8742
Complete Media [1, 13]: 0.9265
Difference [1, 10]: 0.05
Difference [2, 18]: −0.17
Cholesterol-free [2, 19]: 0.9061
Complete [2, 9]: 0.7326

O=C1C=C2C=C[C@@H]3C[C@@]2(O1)[C@H]1CCCCN31 [(−)-Securinine]
Cholesterol-free media + simvastatin (0.04 μM) [1, 29]: 0.8712
Complete Media [1, 30]: 0.9865
Difference [1, 16]: 0.12
Cholesterol-free [2, 14]: 0.7572
Complete [2, 15]: 0.9271
Difference [2, 17]: 0.17

CCN(C)C(=O)Oc1cccc([C@H](C)N(C)C)c1 [Rivastigmine]
Cholesterol-free media + simvastatin (0.04 μM) [1, 29]: 1.229
Complete Media [1, 30]: 1.345
Difference [1, 16]: 0.12
Difference [2, 31]: −0.61
Cholesterol-free [2, 26]: 1.742
Complete [2, 25]: 1.133

CCCCC[C@H](O)CC[C@@H]1[C@H]2Cc3cccc(OCC(=O)O)c3C[C@H]2C[C@H]1O [Treprostinil]
Cholesterol-free media + simvastatin (0.04 μM) [1, 27]: 1.177
Complete Media [1, 28]: 0.8507
Difference [1, 5]: −0.33
Difference [2, 24]: −0.50
Cholesterol-free [2, 26]: 1.45
Complete [2, 25]: 0.9512

C[N+](C)(C)CC(=O)O [Betaine (hydrochloride)]
Cholesterol-free media + simvastatin (0.04 μM) [1, 3]: 1.292
Complete Media [1, 4]: 1.099
Difference [1, 5]: −0.19
Difference [2, 24]: −0.76
Cholesterol-free [2, 26]: 1.594
Complete [2, 25]: 0.8295

COc1ccc(OC)c(C(O)CNC(=O)CN)c1 (stereo not shown) [Midodrine (hydrochloride)]
Cholesterol-free media + simvastatin (0.04 μM) [1, 27]: 2.06
Complete Media [1, 28]: 1.752
Difference [1, 5]: −0.31
Cholesterol-free [2, 14]: 0.6607
Complete [2, 15]: 0.8643
Difference [2, 20]: 0.20

Cn1c(=O)c2c(ncn2CC(O)CO)n(C)c1=O (stereo not shown) [Diphylline]
Cholesterol-free media + simvastatin (0.04 μM) [1, 3]: 1.247
Complete Media [1, 4]: 1.05
Difference ([1]; complete media vs cholesterol-free media + simvastatin (0.04 μM), […]): −0.20
Difference [2, 31]: −0.69
Cholesterol-free [2, 26]: 1.559
Complete [2, 25]: 0.8732

O=C1OC2(c3ccc(O)cc3Oc3cc(O)ccc32)c2ccccc21 [Fluorescein]
Cholesterol-free media + simvastatin (0.04 μM) [1, 3]: 1.054
Complete Media [1, 4]: 0.8464
Difference [1, 5]: −0.21
Cholesterol-free [2, 7]: 1.153
Complete ([2]; NCI-H292 cells, complete media): 0.6958
Difference [2, 11]: −0.46

Rasagiline (mesylate)
Cholesterol-free media + simvastatin (0.04 μM) [1, 8]: 1.319
Complete Media [1, 9]: 1.208
Difference [1, 5]: −0.11
Difference [2, 18]: −0.16
Cholesterol-free [2, 19]: 0.8816
Complete [2, 9]: 0.7256
